The text below walks through data of patent US5723496A, “Method for prevention and treatment of harmful effects of intracellular acidosis” (priority 1995, dated 1998).

Molecules are shown by their SMILES. Entries after “also recorded” stand apart in the source; their conditions may differ. Counter-ions that a name gives are not always drawn. Like-named read-outs stand apart in the source and are kept apart here.

Data set [1] in a line: charge state in brain cytosol from pKa. Particulars: sulfate. An excerpt: (Soc. Neurosci., 21 Annual Meeting, Abstract, 1078, Oct. 5, 1992). Entry of GES across the blood-brain barrier (BBB) is likely to be in the uncharged form. Following free diffusion into the cytosol, the ratio between uncharged and charged forms will equilibrate according to cytosolic pH and the pKa value of GES.
Following free diffusion into cytosol, the ratio between charged (RH3^+) and uncharged forms will equilibrate according to cytosolic pH and their respective pKa values.

The next data set concerns anaerobic glycolysis. The data set is described as follows: brain lactate after 2.5 min anoxia. Format: in vivo, Adult Swiss mice. The procedure: (§1) Adult Swiss mice (BK-1 male 20 g) purchased from Bantin & Kingman, Fremont, Calif., were used. Each batch consisted of 15 mice. Within each batch, five mice were selected randomly to be in the GES, taurine, or control group. A taurine group was included to serve as additional control.
Brain lactate levels were determined for mice exposed to 2.5 minutes of anoxia as follows. Animals were exposed to 2.5 minutes of anoxia under pentobarbital anesthesia. Immediately after the exposure, animals were immersed into a liquid nitrogen. The frozen brains were removed by chiseling and extracted as described above. Lactate concentration was determined using the lactate dehydrogenase reaction.

Data set [2] is described as follows: observation of behavior and respiratory pattern. Format: in vivo, Adult Swiss mice. Particulars: two weeks i.p.
From the text: as §1

The conditions of data set [3]: in vivo, sulfate, cited from earlier work.
The test system of data set [4] is post-ischemia hyperactivity. The data set is described as follows: motor activity (distance traveled) before and after ischemia. Format: in vivo, gerbil. The procedure:
Ischemia was induced as described above. Motor activity was analyzed using a PC driven automatic behavior analyzer as follows. Animals were placed individually in automated motor activity chambers (Omnitech Digiscan, Columbus, Ohio). A horizontally aligned array of […] infrared beams on each side of the chamber (39×39×39 cm high), located 2.5 cm above the floor and 2.5 cm apart, detected animals movements. […] Animals were studied prior to and 1, 2, 3, 7 day after induction of ischemia. Motor activity was monitored for 6 hours between 11:00 pm and 5:00 am.

The test system of the next data set is mouse brain. The data set is described as follows: mouse brain intracellular pH pre- and post-anoxia (Example 7, 31P NMR). The class given is in vivo, Adult Swiss mice. The conditions noted are these: FIG. 12, sulfate. The procedure:
as §1
A GE Omega CSI-7T (clear bore 120 mm, horizontal, 7T) was used. Mice were anesthetized with pentobarbital, 50 mg/kg, intraperitoneally. Mice were held in a padded holder which was placed in the probe chamber containing a one turn round surface coil (5 mm diameter) tunable to the resonance frequency of proton and ^31 P. To avoid signal contamination, the scalp and temporal muscle were retracted. The animal body temperature was kept at 37° C. using a non-magnetic heating pad. Field homogeneity was maximized by skimming on tissue water proton signals. ^31 P spectra were obtained using a one pulse sequence at 121.67 MHz with a spectral width of 10K and stored into 4K memory blocks (recycle time 1.2 sec). Every 100 transients (2 minutes) were blocked. In order to obtain higher accuracy, preanoxia steady state pH was determined using block average files of three blocks (300 transients, 6 minutes). Anoxia was then introduced by infusion of 100% N2 into the chamber (14 L/min). The first blocks (100 transients, 2 minutes) immediately after N2 introduction were utilized for post anoxia pH measurement. […]

On the set-up of data set [5]: species or system Adult Swiss mice. Particulars: mouse, in vivo. The procedure: as §1
Arterial blood gas sample was collected by puncture of the lower portion of the descending aorta under pentobarbital anesthesia. Analysis was performed on a Corning 168 Blood Gas Analyzer.

Data set [6] concerns mouse brain intracellular acidosis. Put plainly: in vivo brain pH before and after 2 min anoxia (Example 4). Details: species or system mice. The conditions noted are these: for brain pH after anoxia / brain pH before anoxia: mice, 3.75 mmole/kg/day i.p., 14 days; for brain pH after anoxia: 2 min anoxia. The procedure:
Using the same experimental procedure as in Example 3, in vivo pH buffering property of guanidinoethanesulfonic acid against the in vivo intracellular acidosis and pH depression caused by anoxia was evaluated.
Aqueous solution of guanidinoethanesulfonic acid (0.3M) was administered daily intraperitoneally to five mice at a dose of 3.75 mmole/kg/day for a period of 14 days. The same number of control mice (5) received intraperitoneal administration of physiological saline solution at a dose of 0.25 ml/animal/day for the same period (14 days).
After the 14 days of administration period of GES or saline, animals were placed in a chamber filled with pure 100% nitrogen for 2 minutes to produce the anoxia state. The pH of the brain was measured in vivo before and after the anoxia by the technique of ^31 P spectroscopy using Omega-7 Tesla Magnetic Resonance Spectrophotometer.

Details of data set [7]: species or system gerbil. The conditions noted are these: in vivo. The procedure: Adult male gerbils (ca. 70 g) were divided into three groups of 5 gerbils each. Control group received saline and experimental group received GES. Taurine group served as an additional control. […] The saline group received 0.25 ml of saline injections.
After two weeks, animals were sacrificed by exsanguination under pentobarbital anesthesia. Brains were removed and fixed in liquid nitrogen. The frozen brains were pulverized in a liquid nitrogen cooled mortar and pestle, and mixed with 4 volumes of 0.5N powdered frozen perchloric acid. The powder mixture was centrifuged in liquid nitrogen cooled centrifuge tubes at 16,000 rpm at -4° C. for 30 minutes. The supernatant was removed and titrated to a pH of 9.0-9.5 by the addition of potassium bicarbonate. The solution was stored in an ice bath for 15 minutes and the potassium perchlorate precipitate was removed by centrifugation at 16,000 rpm at -4° C.
Aliquots (0.5 ml) of the extracts obtained above were placed on a dual bed ion exchange column containing 6×0.5 cm Dowex AG1 anion exchange resin (chloride form) layered over 6×0.5 cm Dowex AG50 cation exchange resin (hydrogen form). Water (3 ml) then added to the column. The eluent, guanidinoethyl sulfonate, was free from other naturally occurring guanidino compounds, such as arginine. […] After 18 min., absorbance was read at 545 nm using a Gilford Spectrophotometer to determine brain GES level.

Setting [8] is: listed as guanidinoethane sulfate.

For the compound `N=C(N)NCCS(=O)(=O)O` [GES, guanidinoethane sulfate], the “charge state in brain cytosol (in words)” value in data set [1] is reported as “virtually all GES in brain cytosol is in the charged form”. Moreover, the Lactate in the data set with anaerobic glycolysis (Table 4, n = 5, post 2.5 min anoxia) amounted to 0.50 ± 0.07 mM. In addition, in the data set with anaerobic glycolysis (among three groups), the “lactate levels post 2.5 min anoxia (in words)” value is listed as “essentially identical among the three groups”. Moreover, the “observable adverse effects in behavior or respiratory pattern” value in data set [2] is “did not show any observable adverse effects”. In data set [3] (listed as Guanidinoethanesulfonic acid), the “blood-brain barrier crossing (in words)” value was “ability to cross the blood-brain barrier”. Moreover, the “blood-brain barrier crossing (in words)” value in data set [3] is reported as “crosses the blood brain barrier in the uncharged form”. Besides, the “travelling distance before ischemia” value in data set [4] (GES-treated gerbils) is “approximately 150 m/hours”. Further, the “travelling distance of ischemia control vs GES ischemia group” value in data set [4] (first day after ischemia) is recorded as “more than 2.5 times”. The “post-ischemia hyperactivity (in words)” value in data set [4] (in vivo, sulfate) is reported as “did not experienced such hyperactivity periods; also recorded: significantly suppressed; also recorded: able to suppress post-ischemic hyperactivity to close to normal levels”. Also, the “brain intracellular pH, pre-anoxia (in words)” value with mouse brain (625 mg/kg i.p., two weeks, 625 mg/kg) was “detectable shift in intracellular pH, to a more alkaline level; also recorded: clear alkali shift; also recorded: significantly increased brain intracellular pH (alkaline shift)”. Also, in the data set with mouse brain, the “brain intracellular pH, post-anoxia (in words)” value is listed as “alkali shift is maintained following 12 minutes of post anoxia; also recorded: remained higher, retaining the degree of alkaline shift”. Besides, in [5], the “arterial blood gas parameters including pH (in words)” value is “remained essentially unchanged”, the “arterial pCO2” value came out at 41.0 ± 5.49 mmHg, the “arterial pH” value came to 7.29 ± 0.03 and the “arterial pO2” value was 98.0 ± 5.8 mmHg. Further, in data set [6] (setting [8]), the “brain pH after anoxia” value is 7.05±0.05 and the “brain pH before anoxia” value is on record as 7.16±0.04. In [6] (sulfate), the “brain pH after anoxia” value is 7.05 and the “brain pH before anoxia” value is given as 7.16. For the same compound, in data set [6] (p<0.05, listed as guanidinoethane sulfate), the “prevention of decrease in brain pH (in words)” value is “effectively protects the brain cell from the acidosis damage”. The “prevention of decrease in brain pH (in words)” value in data set [6] (p<0.05, sulfate) was “significantly (p<0.05) prevented the decrease in the cellular pH”. The “brain GES level relative to saline group” value in [7] is recorded as “about 7 times”.
